Measurements as given in US9315546B2, “Growth hormone secretatogue receptor antagonists and uses thereof” (The Administrators of the Tulane Educational Fund, priority 2010, dated 2016).
Where “and” joins values, the source holds several entries; their conditions need not be identical. Equal entries are not always repeated. One block for each molecule: values may come before it.

Biological target: Ghrelin/GHRP/GHS Receptor (Rattus norvegicus, UniProt O08725)
Experiment: GH release from cell culture of pituitary cells
Format: cell-based
Parameters: After dispersion, the cells were collected by centrifugation, wash with DMEM and placed into culture well; endogenous in cells; host or cells: dispersed primary rat pituitary cells, 4 days in culture
Details: for Unstimulated Basal GH release: Table 8
Description: In vitro GH Release-Female rats of the CD-1 strain were housed in a constant temperature room at 24° C. with 14 h light and 10 h darkness. The rats were fed Purina Rat chow and water at libitum. All studies were started between 0800-1000 hours. Pituitaries of mature female Sprague Dawley rats were rapidly removed after decapitation, neurointermediate lobe discarded and then placed in a pH 7.4 buffer. The pituitaries were cut into ˜3-mm pieces and then transferred to a flask containing HEPS buffer with trypsin and incubated at 37° C. Cells were triturated several times during this period. After dispersion, the cells were collected by centrifugation, wash with DMEM and placed into culture well. Cell cultures were maintained for 4 days at 37° with 8% CO2 added to the incubator atmosphere. After 4 days in culture, cells were washed with lactated Ringer's solution adjusted to pH 7.2-7.4 and then vehicle, peptide alone or peptide plus stimulator was added to media. Incubation time was 60-120 minutes after which media was removed from each well for GH determination. The GH RIA reagents were distributed by the NIH. Control data was collected from cell cultures treated with only the corresponding vehicle in the absence of peptide or stimulator. Control stimulated data was collected from cell cultures treated with stimulator alone in the absence of any peptide.

[1] = Table 10, compound 10 μg/ml + stimulator 1 ng/ml
[2] = Table 10, compound 30 μg/ml + stimulator 1 ng/ml
[3] = Table 10, compound alone 10 μg/ml
[4] = Table 10, compound alone 30 μg/ml
[5] = Table 11, compound 10 μg/ml + stimulator 1 ng/ml
[6] = Table 11, compound 30 μg/ml + stimulator 1 ng/ml
[7] = Table 11, compound alone 10 μg/ml
[8] = Table 11, compound alone 30 μg/ml
[9] = Table 10, compound 3 μg/ml + stimulator 1 ng/ml
[10] = Table 10, compound alone 3 μg/ml

Ghrelin/GHRP/GHS Receptor, sequence (O08725 whole entry): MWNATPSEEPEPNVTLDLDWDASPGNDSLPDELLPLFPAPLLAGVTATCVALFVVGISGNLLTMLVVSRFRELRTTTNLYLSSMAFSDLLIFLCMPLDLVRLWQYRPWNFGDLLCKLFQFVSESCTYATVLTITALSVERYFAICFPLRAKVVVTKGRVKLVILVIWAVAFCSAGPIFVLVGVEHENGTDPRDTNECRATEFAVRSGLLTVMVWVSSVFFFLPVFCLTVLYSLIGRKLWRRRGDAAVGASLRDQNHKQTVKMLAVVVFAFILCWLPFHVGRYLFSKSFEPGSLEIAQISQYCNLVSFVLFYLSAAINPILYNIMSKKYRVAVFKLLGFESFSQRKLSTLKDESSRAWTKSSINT

- Unstimulated Basal GH release (peptide 3 μg/ml): 170 ± 19 ng/mL
- Unstimulated Basal GH release (peptide 10 μg/ml): 181 ± 31 ng/mL
- Unstimulated Basal GH release (peptide 30 μg/ml): 161 ± 20 ng/mL
- Unstimulated Basal GH release (peptide 100 μg/ml): 146 ± 21 ng/mL
Molecule: DPhe-Ala-Phe-DPal-NH2 [6-DPhe-Ala-Phe-DPal-NH2]

- Unstimulated Basal GH release (peptide 3 μg/ml): 1081 ± 50 ng/mL
- Unstimulated Basal GH release (peptide 10 μg/ml): 997 ± 30 ng/mL
- Unstimulated Basal GH release (peptide 30 μg/ml): 425 ± 25 ng/mL
Molecule: DPal-Phe-DTrp-Phe-Met-NH2 [12-DPal-Phe-DTrp-Phe-Met-NH2]

- Stimulated GH release (P + S) [1]: 480 ± 9 ng/mL
- Stimulated GH release (P + S) [2]: 223 ± 22 ng/mL
- Unstimulated GH release [3]: 373 ± 2 ng/mL
- Unstimulated GH release [4]: 176 ± 11 ng/mL
Molecule: 2-[acetylester]-3-(p-m-methoxyl phenyl) piperidinamide]-naphthalene carboxamide

- Stimulated GH release (P + S) (Table 11, compound 1 μg/ml + stimulator 1 ng/ml): 680 ± 13 ng/mL
- Stimulated GH release (P + S) (Table 11, compound 3 μg/ml + stimulator 1 ng/ml): 489 ± 41 ng/mL
- Stimulated GH release (P + S) [5]: 245 ± 16 ng/mL
Molecule: p-phenyl(piperidinamide-DTrpLysSer(BZL)-acetylamide

- Stimulated GH release (P + S) [5]: 526 ± 27 ng/mL
- Stimulated GH release (P + S) [6]: 428 ± 22 ng/mL
- Unstimulated GH release [7]: 557 ± 19 ng/mL
- Unstimulated GH release [8]: 378 ± 18 ng/mL
Molecule: γAbuDTrp-p-[m-methoxyphenyl] piperidinamide

- Unstimulated Basal GH release (peptide 1 μg/ml): 286 ± 75 ng/mL
- Unstimulated Basal GH release (peptide 3 μg/ml): 177 ± 44 ng/mL
- Unstimulated Basal GH release (peptide 10 μg/ml): 271 ± 38 ng/mL
- Unstimulated Basal GH release (peptide 30 μg/ml): 376 ± 28 ng/mL
Molecule: DAla-DcyclohexylAla-Ala-Ala-Phe-DPhe-Nle-NH2

- Unstimulated Basal GH release (peptide 1 μg/ml): 1086 ± 52 ng/mL
- Unstimulated Basal GH release (peptide 3 μg/ml): 1103 ± 18 ng/mL
- Unstimulated Basal GH release (peptide 10 μg/ml): 994 ± 22 ng/mL
- Unstimulated Basal GH release (peptide 30 μg/ml): 704 ± 115 ng/mL
Molecule: αAib-DTrp-DAla-cyclohexylAla-NH2 [4-αAib-DTrp-DAla-cyclohexylAla-NH2]

- Unstimulated Basal GH release (peptide 3 μg/ml): 1480 ± 19 ng/mL
- Unstimulated Basal GH release (peptide 10 μg/ml): 802 ± 26 ng/mL
- Unstimulated Basal GH release (peptide 30 μg/ml): 601 ± 16 ng/mL
- Unstimulated Basal GH release (peptide 100 μg/ml): 509 ± 49 ng/mL
Molecule: Arg-DTrp-Leu-Tyr-Trp-Pro(cyclic Arg-Pro) (WLYWP; HELM PEPTIDE1{R.[dW].L.Y.W.P}$PEPTIDE1,PEPTIDE1,1:R1-6:R2$$$V2.0; SMILES CC(C)C[C@@H]1NC(=O)[C@@H](Cc2c[nH]c3ccccc23)NC(=O)[C@H](CCCNC(=N)N)NC(=O)[C@@H]2CCCN2C(=O)[C@H](Cc2c[nH]c3ccccc23)NC(=O)[C@H](Cc2ccc(O)cc2)NC1=O)

- Stimulated GH release (P + S) [9]: 432 ± 25 ng/mL
- Stimulated GH release (P + S) [1]: 353 ± 10 ng/mL
- Unstimulated GH release [10]: 393 ± 54 ng/mL
- Unstimulated GH release [3]: 369 ± 30 ng/mL
Molecule: Benzamide-DSerDLysTrp-p-phenylpiperidinamide

- Stimulated GH release (P + S) (Table 10, compound 1 μg/ml + stimulator 1 ng/ml): 654 ± 18 ng/mL
- Stimulated GH release (P + S) [9]: 442 ± 4 ng/mL
- Stimulated GH release (P + S) [1]: 537 ± 28 ng/mL and 648 ± 16 ng/mL
- Stimulated GH release (P + S) [2]: 309 ± 46 ng/mL
- Unstimulated GH release (Table 10, compound alone 1 μg/ml): 338 ± 3 ng/mL
- Unstimulated GH release [10]: 204 ± 10 ng/mL
- Unstimulated GH release [3]: 262 ± 4 ng/mL and 136 ± 11 ng/mL
- Unstimulated GH release [4]: 118 ± 8 ng/mL
Molecule: COc1ccccc1N1CCN(C(=O)c2cc3ccccc3cc2C(=O)N2CCN(c3ccccc3OC)CC2)CC1 [2,3-di[N-(2-methoxylphenyl)piperazyl-naphthalenecarboxylamide]

- Stimulated GH release (P + S) [5]: 1149 ± 33 ng/mL
- Stimulated GH release (P + S) [6]: 886 ± 29 ng/mL
- Unstimulated GH release [7]: 754 ± 32 ng/mL
- Unstimulated GH release [8]: 498 ± 26 ng/mL
Molecule: COC(=O)c1cc2ccccc2cc1C(=O)Nc1ccc(C)cc1 [2-[methylester]-3-[p-methylphenylamidenaphthalenecarboxylamide]

- Unstimulated Basal GH release (peptide 3 μg/ml): 1013 ± 207 ng/mL
- Unstimulated Basal GH release (peptide 10 μg/ml): 976 ± 13 ng/mL
- Unstimulated Basal GH release (peptide 30 μg/ml): 928 ± 16 ng/mL
Molecule: Ac-DβNal-PlcLys-ILys-DPhe-NH2 [11-Ac-DβNal-PlcLys-ILys-DPhe-NH2]

- Stimulated GH release (P + S) [1]: 1281 ± 58 ng/mL
- Stimulated GH release (P + S) [2]: 699 ± 53 ng/mL
- Unstimulated GH release [3]: 929 ± 28 ng/mL
- Unstimulated GH release [4]: 616 ± 23 ng/mL
Molecule: C=C(C)CON=C(c1ccccc1)c1ccccc1 [5-O-(2-methylallyl) benzophonone oxime, O-(2-methylallyl) benzophonone oxime]
